The record followed here is ChEMBL document CHEMBL4000212, “New furoxan derivatives for the treatment of ocular hypertension” (Bioorg Med Chem Lett, 2017).

The structures appear in SMILES notation. Some results are limits rather than exact numbers.

The nature of data set [1]: Induction of NO release assessed as nitrite formation at 0.1 mM in phosphate buffer saline at pH 7.4 in absence of L-cysteine measured after 1 hr by Griess assay.
A short description of data set [2]: Induction of NO release assessed as nitrite formation at 0.1 mM in phosphate buffer saline at pH 7.4 in presence of 0.5 mM L-cysteine measured after 1 hr by Griess assay. For orientation: Nitrite, measured by Griess reagent, commonly stands in for NO production.
A short description of data set [3]: Induction of NO release assessed as nitrite formation at 0.1 mM in phosphate buffer saline at pH 7.4 in presence of 5 mM L-cysteine measured after 1 hr by Griess assay.
Data set [4] is described as follows: Solubility of the compound in water at 5 mg incubated in magnetic stirrer for 1 hr. The data set is classed as physicochemical.
The nature of data set [5]: Solubility in pH 6 phosphate buffer /5% cremophor EL/0.3% DMSO/0.2 mg/ml bac solution at 10 mg incubated in magnetic stirrer for 1 hr. It counts as physicochemical. The following applies: pH 6, 1 h.
A short description of data set [6]: Ionization constant, pKa of the compound by potentiometric titration. The data set is classed as physicochemical.
A short description of data set [7]: n-Octanol-water distribution coefficient, log D of the compound at pH 7.4 after 20 mins by UV-spectrometric based shake-flask method. The data set is classed as physicochemical.
Data set [8] can be described thus: Ionization constant of the compound assessed as ionization level by potentiometric titration. The data set is classed as physicochemical.
Data set [9] has as its system Oryctolagus cuniculus. The data set is described as follows: Antiglaucoma activity in hypertonic saline-induced New Zealand white rabbit transient ocular hypertensive model assessed as IOP lowering efficacy at 30 uL administered topically immediately after hypertonic saline injection measured at 120 mins post dose. The data set is classed as functional.
Data set [10] relates to Oryctolagus cuniculus. The experiment in a line: Antiglaucoma activity in hypertonic saline-induced New Zealand white rabbit transient ocular hypertensive model assessed as IOP lowering efficacy at 30 uL administered topically immediately after hypertonic saline injection measured at 60 mins post dose. It counts as functional.
In data set [11] the test system is Oryctolagus cuniculus. The experiment in a line: Antiglaucoma activity in hypertonic saline-induced New Zealand white rabbit transient ocular hypertensive model assessed as IOP lowering efficacy at 30 uL administered topically immediately after hypertonic saline injection measured at 240 mins post dose. The data set is classed as functional.
Data set [12] deals with Oryctolagus cuniculus. The experiment in a line: Antiglaucoma activity in hypertonic saline-induced New Zealand white rabbit transient ocular hypertensive model assessed as IOP lowering efficacy at 0.5% administered topically immediately after hypertonic saline injection measured at 60 mins post dose. It counts as functional.
Data set [13] deals with Oryctolagus cuniculus. The data set is described as follows: Antiglaucoma activity in hypertonic saline-induced New Zealand white rabbit transient ocular hypertensive model assessed as IOP lowering efficacy at 0.5% administered topically immediately after hypertonic saline injection measured at 120 mins post dose. It counts as functional.
Data set [14] has as its system Oryctolagus cuniculus. The experiment in a line: Antiglaucoma activity in hypertonic saline-induced New Zealand white rabbit transient ocular hypertensive model assessed as IOP lowering efficacy at 30 uL administered topically immediately after hypertonic saline injection measured at 30 mins post dose. The data set is classed as functional.

The term solubility denotes the dissolved amount per volume that the medium holds. Low values mean little dissolved substance, high ones much dissolved substance. In general, pKa refers to the negative logarithm of the acid dissociation constant. Read a high pKa as a weaker acid or stronger base. In general, logD refers to the decadic logarithm of the distribution of all forms, ionised or not, between an organic phase and buffer at a given pH. Read a high logD as higher lipophilicity.

On to `N#Cc1c(CN2CCC(Br)CC2)no[n+]1[O-].O=C(O)C(=O)O`, for which the Activity in [1] is 0%; in data set [2], 15.9%; in [3], 40.5%; in [8] it was less than 0.1%. In data set [4], this compound displayed a solubility at 1 h of less than 0.5 mg/mL. Moreover, the solubility result in data set [5] is on record as “Insoluble”. The pKa in data set [6] turned out to be 4.01. In data set [7], this compound gave a logD at 20 min of 2.31.

As for `CCN(Cc1ccccc1)Cc1no[n+]([O-])c1C#N.O=C(O)C(=O)O`, the Activity in [1] came to 0%; in data set [2], 16.4%; in [3] it was 41.7%; in data set [8], 1.5%. Moreover, in [4], the solubility at 1 h is less than 0.5 mg/mL. In data set [5], the solubility result was “Insoluble”. Also, the pKa in [6] turned out to be 5.58. The same compound returned a pH-dependent lipophilicity (logD) at 20 min in data set [7] of 2.62.

As to `Cc1c(OCCN)no[n+]1[O-].O=C(O)C(=O)O`, the Activity was 0% in [1]; 0% in data set [2]; less than 1% in [3]; -8.8 mmHg in [9]; -11.9 mmHg in data set [10]; 95.2% in data set [8]. In addition, in data set [4], the solubility at 1 h was more than 30 mg/mL. Moreover, the solubility result in data set [5] is reported as “Soluble”. Also, the pKa in [6] was found to be 8.7. Further, the logD at 20 min in data set [7] is -1.54.

Regarding `CCOC(=O)/N=c1\c[n+](N2CCOCC2)[n-]o1`, the Activity in data set [9] is -8.17 mmHg; in [10], -7.83 mmHg.

As for `CN(C)Cc1no[n+]([O-])c1C#N.O=C(O)C(=O)O`, the Activity in data set [1] was 0%; in data set [2], 16.1%; in data set [3], 43.9%; in data set [9], -11.2 mmHg; in data set [10], -14.4 mmHg; in [11], -8.6 mmHg. Besides, in data set [8], the Activity is 2.6%. In data set [4], this compound gave a solubility at 1 h of more than 30 mg/mL. The solubility entry in [5] is reported as “Soluble”. This compound also yielded a pKa in data set [6] of 5.82. The pH-dependent lipophilicity (logD) at 20 min in data set [7] was 0.87.

On to `CC(C)(C)NC[C@H](O)COc1nsnc1N1CCOCC1` [TIMOLOL], for which the Activity in data set [12] is -7.17 mmHg; in [13], -7.33 mmHg.

Consider `CC(C)N(Cc1no[n+]([O-])c1C(N)=O)C(C)C`, for which the Activity in [1] came out at 0%; in data set [2] it was 1.2%; in data set [3], 11.6%; in data set [8], 14.2%. This compound also showed a solubility at 1 h in data set [4] of less than 0.5 mg/mL. Further, the solubility result in [5] is listed as “Insoluble”. In data set [6], this compound came in with a pKa of 6.62. For the same compound, the pH-dependent lipophilicity (logD) at 20 min in [7] amounted to 1.4.

As to `CN(C)CCCN(C)Cc1no[n+]([O-])c1C#N.O=C(O)C(F)(F)F`, the Activity in data set [1] was determined as 0%; in [2], 13.5%; in [3], 40.1%; in data set [8], 98.8%. The compound further returned a solubility at 1 h in [4] of more than 30 mg/mL. The solubility result in data set [5] is “Soluble”. In data set [6], this compound returned a pKa of 3.34 to 9.3. The pH-dependent lipophilicity (logD) at 20 min in data set [7] was -0.73.

Take `N#Cc1c(CN2CCNCC2)no[n+]1[O-].O=C(O)C(F)(F)F`: the Activity in [1] was 0%; in data set [2], 15.4%; in data set [9] it was -10.6 mmHg; in [10], -11.5 mmHg; in [8], 96.3%. Besides, the solubility at 1 h in data set [4] is more than 30 mg/mL. For the same compound, the solubility result in data set [5] is recorded as “Soluble”. For the same compound, the pKa in data set [6] was in the range of 2 to 8.81. Further, the pH-dependent lipophilicity (logD) at 20 min in data set [7] is -1.32.

Turning to `N#Cc1c(CN2CCN(c3ncccn3)CC2)no[n+]1[O-]`, the Activity in [1] was 0%; in data set [2] it was 14.4%; in data set [3], 41.5%; in data set [8] it was 0.9%. In data set [4], the solubility at 1 h was less than 0.5 mg/mL. Moreover, in data set [5], the solubility result was “Insoluble”. This compound had a pKa in data set [6] of 2 to 5.38. This compound also had a logD at 20 min in data set [7] of 0.97.

Regarding `CCN(CC)Cc1no[n+]([O-])c1C#N.O=C(O)C(=O)O`, the Activity in data set [1] is 0%; in [2], 15.5%; in [3] it was 41.3%; in data set [9], -4.8 mmHg; in data set [10], -8.9 mmHg; in data set [8], 2.5%. Moreover, the solubility at 1 h in data set [4] is more than 30 mg/mL. Further, the solubility entry in data set [5] is “Soluble”. This compound also displayed a pKa in [6] of 5.8. The compound also displayed a logD at 20 min in data set [7] of 1.98.

As to `CCCN(CCC)Cc1no[n+]([O-])c1C#N.O=C(O)C(=O)O`, the Activity in data set [1] was 0%; in data set [2] it was 18.1%; in data set [3], 42.3%; in [9], -2.8 mmHg; in [10], -5.3 mmHg; in data set [14], -8.5 mmHg. The Activity in data set [8] is 1.1%. The solubility at 1 h in [4] was determined as 2 mg/mL. For the same compound, in [5], the solubility entry was “Soluble”. In addition, the pKa in [6] amounted to 5.46. Further, the logD at 20 min in data set [7] came out at 2.74.

For the compound `CC(C)N(Cc1no[n+]([O-])c1C#N)C(C)C.CS(=O)(=O)O`, the Activity in [1] came out at 0%; in [2], 16.5%; in data set [3], 41.9%; in data set [8] it was 0.9%. In addition, the solubility at 1 h in [4] was more than 30 mg/mL. Besides, the solubility result in data set [5] was “Soluble”. Moreover, the pKa in [6] is 5.35. In [7], the log distribution coefficient (logD) at 20 min stood at 2.35.

With `CN(C)Cc1no[n+]([O-])c1C(N)=O`, the Activity in [1] is 0%; in data set [2], 1.4%; in data set [3], 12.8%; in data set [9], -8.6 mmHg; in data set [10], -12 mmHg; in data set [8] it was 12.9%. In [4], this compound displayed a solubility at 1 h of more than 30 mg/mL. For the same compound, the solubility entry in data set [5] is on record as “Soluble”. Also, the pKa in data set [6] stood at 6.57. In data set [7], this compound returned a pH-dependent lipophilicity (logD) at 20 min of -0.03.

On to `NC(=O)c1c(CO)no[n+]1[O-]`, for which the Activity in data set [1] is 0%; in data set [2], 1.8%; in [3] it was 12%; in [9], -2.9 mmHg; in [10], -4.8 mmHg. In [4], the solubility at 1 h is more than 30 mg/mL. For the same compound, the solubility entry in data set [5] is listed as “Soluble”. Also, in [7], the pH-dependent lipophilicity (logD) at 20 min was -1.48.

On to `CCN(C)Cc1no[n+]([O-])c1C#N.O=C(O)C(=O)O`, for which the Activity was 0% in data set [1], 17.5% in [2], 40.9% in data set [3] and 2.4% in data set [8]. In data set [4], this compound displayed a solubility at 1 h of more than 30 mg/mL. In addition, the solubility result in data set [5] was “Soluble”. Further, the pKa in [6] amounted to 5.79. The compound also displayed a pH-dependent lipophilicity (logD) at 20 min in data set [7] of 1.31.

Regarding `Cc1c(OCCN(C)C)no[n+]1[O-].O=C(O)C(=O)O`, the Activity in data set [1] was 0%; in data set [2], 0%; in [3], less than 1%; in data set [9], -9 mmHg; in [10] it was -14 mmHg; in data set [8], 76%. The compound also returned a solubility at 1 h in [4] of more than 30 mg/mL. Also, in data set [5], the solubility result is “Soluble”. Besides, the pKa in data set [6] was determined as 7.9. In [7], the logD at 20 min was -0.28.
